According to patent publication US20070299139A1, “Lyophilisate Comprising N-Diaminomethylene-2-Methyl-4,5-Di(Methylsulfonyl)Benzamide” (priority 2004, published 2007):

Test: Stability of the active compound in aqueous solution
Type: physicochemical
Settings: hydrolyses
Description: The development of this active compound in intensive medicine requires that it is available in parenterally administrable form, best as aqueous solution.

With `Cc1cc(S(C)(=O)=O)c(S(C)(=O)=O)cc1C(=O)NC(=N)N` [N-diaminomethylene-2-methyl-4,5-di(methylsulfonyl)benzamide] the “stability in aqueous solution” value was “not stable in aqueous solution”.
